Measurements published in patent EP4775568A1, “NOVEL COMPOUND AND USE THEREOF FOR TREATING PSORIASIS” (Gwangju Institute of Science and Technology, priority 2023, dated 2025).
One block for each compound: values may come before it.

Target: T1, CMKLR1 (Homo sapiens, UniProt Q99788)
T1 construct: expressed in transfected cells; host or cells: CHO-K1 cells expressing Gα-16 (CHO-Ga16-CMKLR1)
T1 sequence (Q99788 1-373): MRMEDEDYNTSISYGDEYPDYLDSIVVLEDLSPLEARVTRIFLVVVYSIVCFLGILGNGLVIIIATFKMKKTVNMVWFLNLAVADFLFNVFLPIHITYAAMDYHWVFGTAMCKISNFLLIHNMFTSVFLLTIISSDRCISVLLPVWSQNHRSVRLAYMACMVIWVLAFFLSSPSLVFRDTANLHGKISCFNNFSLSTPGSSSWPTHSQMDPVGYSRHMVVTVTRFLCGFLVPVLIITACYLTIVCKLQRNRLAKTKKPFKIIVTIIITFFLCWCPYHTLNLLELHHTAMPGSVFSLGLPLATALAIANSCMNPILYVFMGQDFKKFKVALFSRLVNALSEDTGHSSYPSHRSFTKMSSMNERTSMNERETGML
Assay: Calcium mobilization assay (CHO-Ga16-CMKLR1 cells, chemerin-9 induced signal)
Type: cell-based
Settings: for IC50: calcium signal induced by 2.5 nM chemerin-9; for inhibition at 10 µM: read-out: CMKLR1 activity in CHO cells (% inhibition at 10 µM), 10 µM compound, relative to calcium signal induced by 2.5 nM chemerin-9
Protocol: To establish a CMKLR1 calcium mobilization cell evaluation system, CHO-K1 cells expressing Gα-16 were transfected with pcDNA3.1-derived human CMKLR1-expressing plasmids using Lipofectamine 2000 (Invitrogen, Waltham, Massachusetts, USA). […] The established cell line (CHO-Ga16-CMKLR1) was cultured in F-12 medium (Invitrogen) supplemented with 10% (v/v) fetal bovine serum (FBS; Invitrogen), 0.5 mg/mL geneticin, 0.2 mg/mL hygromycin B (Clontech), and 1% (v/v) antibiotic-antimycotic solution (Invitrogen) under 5% CO2 at 37°C.
100 µL/well was added to a 96-well plate (Corning) and incubated for 24 h. The buffer solution was prepared by adding 1 M HEPES solution to Hanks' Balanced Salt Solution (HBSS) (Invitrogen) and adjusting the pH to 7.4 by dropwise addition of 1 M NaOH.
The fluorescent dye solution was prepared using the buffer provided with the Calcium 5 Assay Kit (Molecular Devices). 40 µL/well of dye solution was added to each well and incubated at 37°C in a 5% CO2 atmosphere for 30 min. […] The final DMSO concentration was adjusted to 2%. 40 µL of each compound solution was added to the well and incubated for 30 min. […] Prism 5 software (GraphPad) was then used to obtain IC50 values for various compounds. IC50 values were derived based on concentration-response curves, and all experiments were repeated at least three times.

IC50 (Table 2, IC50 class): > 1000 nM
Structure (SMILES): COc1ccc(-c2nn(C3CCCC3)c3cc(COc4ccc(C(C)CC(=O)O)cc4)ccc23)cc1 (centres unmarked) [Compound 15, 3-(4-((1-cyclopentyl-3-(4-methoxyphenyl)-1H-indazol-6-yl)methoxy)phenyl)butanoic acid]

IC50 (Table 4, IC50 class): 100 to 1000 nM
Structure (SMILES): CC(CC(=O)O)c1ccc(OCc2cnc3c(-c4cc(F)c(O)c(F)c4)nn(C4CCCC4)c3c2)cc1 (centres unmarked) [Compound 74, 3-(4-((1-cyclopentyl-3-(3,5-difluoro-4-hydroxyphenyl)-1H-pyrazolo[4,3-b]pyridin-6-yl)methoxy)phenyl)butanoic acid]

inhibition at 10 µM: 28%
Structure (SMILES): CC(CC(=O)O)c1ccc(OCc2ccc3c(-c4ccccc4)nn(CC4CCCCC4)c3c2)cc1 (centres unmarked) [Compound 83, 3-(4-((1-(cyclohexylmethyl)-3-phenyl-1H-indazol-6-yl)methoxy)phenyl)butanoic acid]

IC50 (Table 3, IC50 class): 100 to 1000 nM
Structure (SMILES): C[C@@H](CC(=O)O)c1ccc(OCc2ccc3c(-c4ccc(C(=O)O)cc4)nn(C4CCCC4)c3c2)cc1 [Compound 51, (S)-4-(6-((4-(1-carboxypropan-2-yl)phenoxy)methyl)-1-cyclopentyl-1H-indazol-3-yl)benzoic acid]

inhibition at 10 µM: 60%
Structure (SMILES): CCCn1nc(-c2ccccc2)c2ccc(COc3ccc(C(C)CC(=O)O)cc3)cc21 (centres unmarked) [Compound 79, 3-(4-((3-phenyl-1-propyl-1H-indazol-6-yl)methoxy)phenyl)butanoic acid]

IC50 (Table 3, IC50 class): < 100 nM
Structure (SMILES): C[C@@H](CC(=O)O)c1ccc(OCc2ccc3c(-c4cc(F)c(CO)c(F)c4)nn(C4CCCC4)c3c2)cc1 [Compound 47, (S)-3-(4-((1-cyclopentyl-3-(3,5-difluoro-4-(hydroxymethyl)phenyl)-1H-indazol-6-yl)methoxy)phenyl)butanoic acid]

inhibition at 10 µM: 81%
Structure (SMILES): CCC(CC(=O)O)c1ccc(OCc2ccc3c(-c4ccccc4)nn(C(C)C)c3c2)cc1 (centres unmarked) [Compound 9, 3-(4-((1-isopropyl-3-phenyl-1H-indazol-6-yl)methoxy)phenyl)pentanoic acid]

IC50 (Table 2, IC50 class): > 1000 nM
Structure (SMILES): Cc1ccc(-c2nn(C3CCCC3)c3cc(COc4ccc(C(C)CC(=O)O)cc4)ccc23)cc1 (centres unmarked) [Compound 11, 3-(4-((1-cyclopentyl-3-(p-tolyl)-1H-indazol-6-yl)methoxy)phenyl)butanoic acid]

IC50 (Table 2, IC50 class): > 1000 nM
Structure (SMILES): CCC(CC)Oc1ccc(-c2nn(C3CCCC3)c3cc(COc4ccc(C(C)CC(=O)O)cc4)ccc23)cc1 (centres unmarked) [Compound 27, 3-(4-((1-cyclopentyl-3-(4-(pentan-3-yloxy)phenyl)-1H-indazol-6-yl)methoxy)phenyl)butanoic acid]

inhibition at 10 µM: 25%
Structure (SMILES): CC(C)C(CC(=O)O)c1ccc(OCc2ccc3c(-c4ccccc4)nn(C(C)C)c3c2)cc1 (centres unmarked) [Compound 8, 3-(4-((1-isopropyl-3-phenyl-1H-indazol-6-yl)methoxy)phenyl)-4-methylpentanoic acid]

IC50 (Table 2, IC50 class): > 1000 nM
Structure (SMILES): CC(CC(=O)O)c1ccc(OCc2ccc3c(-c4cccc5ccccc45)nn(C4CCCC4)c3c2)cc1 (centres unmarked) [Compound 26, 3-(4-((1-cyclopentyl-3-(naphthalen-1-yl)-1H-indazol-6-yl)methoxy)phenyl)butanoic acid]

Further lines, the compound ahead of its results:

Structure (SMILES): C[C@@H](CC(=O)O)c1ccc(OCc2cc(F)c3c(-c4cc(Cl)c(O)c(Cl)c4)nn(C4CCCC4)c3c2)cc1 [Compound 69, (S)-3-(4-((1-cyclopentyl-3-(3,5-dichloro-4-hydroxyphenyl)-4-fluoro-1H-indazol-6-yl)methoxy)phenyl)butanoic acid]
IC50 (Table 4, IC50 class): < 100 nM

Structure (SMILES): C=CCOc1ccc(-c2nn(C3CCCC3)c3cc(COc4ccc(C(C)CC(=O)O)cc4)ccc23)cc1 (centres unmarked) [Compound 30, 3-(4-((3-(4-(allyloxy)phenyl)-1-cyclopentyl-1H-indazol-6-yl)methoxy)phenyl)butanoic acid]
IC50 (Table 3, IC50 class): 100 to 1000 nM

Structure (SMILES): CC(C)Cn1nc(-c2ccccc2)c2ccc(COc3ccc(C(C)CC(=O)O)cc3)cc21 (centres unmarked) [Compound 80, 3-(4-((1-isobutyl-3-phenyl-1H-indazol-6-yl)methoxy)phenyl)butanoic acid]
inhibition at 10 µM: 52%

Structure (SMILES): CC(CC(=O)O)c1ccc(OCc2ccc3c(-c4cc(C(F)(F)F)cc(C(F)(F)F)c4)nn(C4CCCC4)c3c2)cc1 (centres unmarked) [Compound 22, 3-(4-((3-(3,5-bis(trifluoromethyl)phenyl)-1-cyclopentyl-1H-indazol-6-yl)methoxy)phenyl)butanoic acid]
IC50 (Table 2, IC50 class): > 1000 nM

Structure (SMILES): CC(CC(=O)O)c1ccc(OCc2ccc3c(-c4ccc(Cl)cc4)nn(C4CCCC4)c3c2)cc1 (centres unmarked) [Compound 18, 3-(4-((3-(4-chlorophenyl)-1-cyclopentyl-1H-indazol-6-yl)methoxy)phenyl)butanoic acid]
IC50 (Table 2, IC50 class): > 1000 nM

Structure (SMILES): CC(CC(=O)O)c1ccc(OCc2cnc3c(-c4ccc(O)cc4)nn(C4CCCC4)c3c2)cc1 (centres unmarked) [Compound 72, 3-(4-((1-cyclopentyl-3-(4-hydroxyphenyl)-1H-pyrazolo[4,3-b]pyridin-6-yl)methoxy)phenyl)butanoic acid]
IC50 (Table 4, IC50 class): 100 to 1000 nM

Structure (SMILES): C[C@@H](CC(=O)O)c1ccc(OCc2ccc3c(-c4cccc(CO)c4)nn(C4CCCC4)c3c2)cc1 [Compound 54, (S)-3-(4-((1-cyclopentyl-3-(3-(hydroxymethyl)phenyl)-1H-indazol-6-yl)methoxy)phenyl)butanoic acid]
IC50 (Table 4, IC50 class): > 1000 nM

Structure (SMILES): CC(CC(=O)O)c1ccc(OCc2cnc3c(-c4cc(Cl)c(O)c(Cl)c4)nn(C4CCCC4)c3c2)cc1 (centres unmarked) [Compound 73, 3-(4-((1-cyclopentyl-3-(3,5-dichloro-4-hydroxyphenyl)-1H-pyrazolo[4,3-b]pyridin-6-yl)methoxy)phenyl)butanoic acid]
IC50 (Table 4, IC50 class): 100 to 1000 nM

Structure (SMILES): CC(CC(=O)O)c1ccc(OCc2ccc3c(-c4ccc(-c5ccccc5)cc4)nn(C4CCCC4)c3c2)cc1 (centres unmarked) [Compound 24, 3-(4-((3-([1,1'-biphenyl]-4-yl)-1-cyclopentyl-1H-indazol-6-yl)methoxy)phenyl)butanoic acid]
IC50 (Table 2, IC50 class): > 1000 nM

Structure (SMILES): CC(CC(=O)O)c1ccc(OCc2ccc3c(-c4ccccc4)nn(Cc4ccccc4)c3c2)cc1 (centres unmarked) [Compound 85]
inhibition at 10 µM: 23%

Structure (SMILES): CC(CC(=O)O)c1ccc(OCc2cnc3c(-c4ccc(O)c(Cl)c4)nn(C4CCCC4)c3c2)cc1 (centres unmarked) [Compound 75, 3-(4-((3-(3-chloro-4-hydroxyphenyl)-1-cyclopentyl-1H-pyrazolo[4,3-b]pyridin-6-yl)methoxy)phenyl)butanoic acid]
IC50 (Table 4, IC50 class): 100 to 1000 nM

Structure (SMILES): CC(CC(=O)O)c1ccc(OCc2ccc3c(-c4cccc(O)c4)nn(C4CCCC4)c3c2)cc1 (centres unmarked) [Compound 14, 3-(4-((1-cyclopentyl-3-(3-hydroxyphenyl)-1H-indazol-6-yl)methoxy)phenyl)butanoic acid]
IC50 (Table 2, IC50 class): > 1000 nM

Structure (SMILES): CC(CC(=O)O)c1ccc(OCc2ccc3c(-c4ccc5c(c4)OCO5)nn(C4CCCC4)c3c2)cc1 (centres unmarked) [Compound 31, 3-(4-((3-(Benzo[d][1,3]dioxol-5-yl)-1-cyclopentyl-1H-indazol-6-yl)methoxy)phenyl)butanoic acid]
IC50 (Table 3, IC50 class): > 1000 nM

Structure (SMILES): C[C@@H](CC(=O)O)c1ccc(OCc2ccc3c(-c4ccc(C(=O)O)cc4F)nn(C4CCCC4)c3c2)cc1 [Compound 52, (S)-4-(6-((4-(1-carboxypropan-2-yl)phenoxy)methyl)-1-cyclopentyl-1H-indazol-3-yl)-3-fluorobenzoic acid]
IC50 (Table 4, IC50 class): 100 to 1000 nM

Structure (SMILES): CC(C)n1nc(-c2ccccc2)c2ccc(COc3ccc(CC(C)(C)C(=O)O)cc3)cc21 [Compound 3, 3-(4-((1-isopropyl-3-phenyl-1H-indazol-6-yl)methoxy)phenyl)-2,2-dimethylpropanoic acid]
inhibition at 10 µM: 10%
